Activity calls are given as the source filed them.
Experiments:
Histamine H4 receptor [1] = target: T1, Histamine H4 receptor (Rattus norvegicus, UniProt Q91ZY1); test: Antagonist activity at rat histamine H4 receptor expressed in HEK293 cells assessed as inhibition of histamine-induced intracellular calcium elevation by FLIPR assay; type: functional, cell-based
Histamine H4 receptor [2] = target: T2, Histamine H4 receptor (Mus musculus, UniProt Q91ZY2); test: Antagonist activity at mouse histamine H4 receptor expressed in HEK293 cells assessed as inhibition of histamine-induced intracellular calcium elevation by FLIPR assay; type: functional, cell-based
T2 sequence (Q91ZY2 whole entry): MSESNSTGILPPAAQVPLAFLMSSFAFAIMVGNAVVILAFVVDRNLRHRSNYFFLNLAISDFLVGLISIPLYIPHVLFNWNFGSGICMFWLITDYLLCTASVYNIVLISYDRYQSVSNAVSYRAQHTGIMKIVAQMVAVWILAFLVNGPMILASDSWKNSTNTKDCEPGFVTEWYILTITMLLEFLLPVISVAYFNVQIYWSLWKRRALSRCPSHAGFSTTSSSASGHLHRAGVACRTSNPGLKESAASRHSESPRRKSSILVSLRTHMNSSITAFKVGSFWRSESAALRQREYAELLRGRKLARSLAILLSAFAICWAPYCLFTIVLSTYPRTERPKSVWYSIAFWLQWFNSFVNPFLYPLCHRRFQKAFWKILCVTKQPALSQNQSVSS

Histamine H4 receptor [3] = target: T3, Histamine H4 receptor (Homo sapiens, UniProt Q9H3N8); test: Displacement of [3H]histamine from human histamine H4 receptor expressed in HEK293 cells; type: cell-based; details: read-out: Ki
Histamine H4 receptor [4] = target: T1, Histamine H4 receptor; test: Displacement of [3H]histamine from rat histamine H4 receptor expressed in HEK293 cells; type: cell-based
BMMC = test: Blockade of histamine-induced morphological changes in BALB/c mouse BMMC by flow cytometry; type: functional, cell-based
[5] = Selectivity ratio of Ki for human histamine H4 receptor to Ki for histamine H1 receptor
[6] = Selectivity ratio of Ki for human histamine H4 receptor to Ki for histamine H2 receptor
Homo sapiens = species: Homo sapiens; test: Selectivity ratio of Ki for human histamine H4 receptor to Ki for human histamine H3 receptor
[7] = Selectivity ratio of Ki for human histamine H4 receptor to Ki for 5HT1A receptor
[8] = Selectivity ratio of Ki for human histamine H4 receptor to Ki for 5HT1D receptor
[9] = Selectivity ratio of Ki for human histamine H4 receptor to Ki for 5HT2A receptor
[10] = Selectivity ratio of Ki for human histamine H4 receptor to Ki for dopamine D2 receptor
[11] = Selectivity ratio of Ki for human histamine H4 receptor to Ki for adrenergic alpha1 receptor
[12] = target: Prostaglandin G/H synthase 1 (Homo sapiens) (UniProt P23219); test: Binding affinity at COX1
[13] = target: T4, Prostaglandin G/H synthase 2 (Homo sapiens) (UniProt P35354); test: Binding affinity at COX2
T4 sequence (whole entry): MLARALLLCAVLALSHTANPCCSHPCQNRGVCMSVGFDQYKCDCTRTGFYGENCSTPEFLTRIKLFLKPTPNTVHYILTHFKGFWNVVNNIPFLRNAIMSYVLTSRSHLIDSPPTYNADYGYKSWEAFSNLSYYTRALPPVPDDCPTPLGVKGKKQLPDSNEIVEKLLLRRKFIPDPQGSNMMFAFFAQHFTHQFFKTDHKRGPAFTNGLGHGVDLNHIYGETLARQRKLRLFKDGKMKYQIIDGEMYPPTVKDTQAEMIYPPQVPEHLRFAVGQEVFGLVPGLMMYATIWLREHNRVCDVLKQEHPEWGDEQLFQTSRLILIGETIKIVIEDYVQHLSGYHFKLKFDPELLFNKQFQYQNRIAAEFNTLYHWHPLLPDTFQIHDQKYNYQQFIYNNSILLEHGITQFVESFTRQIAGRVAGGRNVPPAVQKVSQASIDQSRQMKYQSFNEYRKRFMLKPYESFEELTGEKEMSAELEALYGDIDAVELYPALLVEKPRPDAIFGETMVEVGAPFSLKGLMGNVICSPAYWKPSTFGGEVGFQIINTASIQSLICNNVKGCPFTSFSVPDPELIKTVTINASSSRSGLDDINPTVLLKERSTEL

[14] = target: Mu-type opioid receptor (Homo sapiens) (UniProt P35372); test: Binding affinity to mu opioid receptor
[15] = target: Kappa-type opioid receptor (Homo sapiens) (UniProt P41145); test: Binding affinity to kappa opioid receptor
[16] = target: Delta-type opioid receptor (Homo sapiens) (UniProt P41143); test: Binding affinity to delta opioid receptor
[17] = target: Cannabinoid receptor 1 (Homo sapiens) (UniProt P21554); test: Binding affinity to CB1 receptor
[18] = target: Cannabinoid receptor 2 (Homo sapiens) (UniProt P34972); test: Binding affinity to CB2 receptor
Liver microsomes [19] = test: Metabolic stability in rat liver microsomes; type: ADME, Microsome
Liver microsomes [20] = test: Metabolic stability in human liver microsomes; type: ADME, Microsome
[21] = Metabolic stability in mouse liver microsomes; type: ADME, Microsome
[22] = Protein binding in rat; type: ADME, organism-based; details: in vivo, read-out: PB (converted)
[23] = Protein binding in human; type: ADME, organism-based; details: in vivo, read-out: PB (converted)
Cytochrome P450 3A4 = Cytochrome P450 3A4 (Homo sapiens, UniProt P08684); test: Inhibition of CYP3A4 upto 10 uM; type: ADME
Cytochrome P450 2D6 = Cytochrome P450 2D6 (Homo sapiens, UniProt P10635); test: Inhibition of CYP2D6 upto 10 uM; type: ADME
Cytochrome P450 2C9 = Cytochrome P450 2C9 (Homo sapiens, UniProt P11712); test: Inhibition of CYP2C9 upto 10 uM; type: ADME
[24] = Ratio of drug level in brain to plasma in rat at 10 mg/kg, iv after 30 mins; type: ADME, organism-based; set-up: dose 10 mg/kg, route intravenous
Mus musculus [25] = test: Antiinflammatory activity against ip dosed BALB/c mouse assessed as inhibition of zymosan-induced peritonitis after 2 hrs pretreated 30 mins before zymosan challenge; type: functional
Mus musculus [26] = test: Inhibition of clobenpropit-induced itching in ip dosed CD1/ICR mouse assessed as blockade of scratching in hind paw for 25 mins pretreated 30 mins before clobenpropit challenge; type: functional
Rattus norvegicus [27] = test: Antinociceptive efficacy against von Frey hair mechanically stimulated post-surgical pain after skin incision in rat assessed as withdrawal threshold at 10 umol/kg, ip; type: functional
Rattus norvegicus [28] = test: Antinociceptive efficacy against von Frey hair mechanically stimulated post-surgical pain after skin incision in rat assessed as withdrawal threshold at 30 umol/kg, ip; type: functional
Rattus norvegicus [29] = test: Antinociceptive efficacy against von Frey hair mechanically stimulated post-surgical pain after skin incision in rat assessed as withdrawal threshold at 100 umol/kg, ip; type: functional
Rattus norvegicus [30] = test: Antinociceptive efficacy against von Frey hair mechanically stimulated post-surgical pain after skin incision in rat assessed as withdrawal threshold at 500 umol/kg, ip; type: functional
Rattus norvegicus [31] = test: Antinociceptive efficacy against complete Freund's adjuvant-induced thermal hyperalgesia in rat assessed as withdrawal threshold at 10 umol/kg, ip after 48 hrs; type: functional
Rattus norvegicus [32] = test: Antinociceptive efficacy against complete Freund's adjuvant-induced thermal hyperalgesia in rat assessed as withdrawal threshold at 30 umol/kg, ip after 48 hrs; type: functional
Rattus norvegicus [33] = test: Antinociceptive efficacy against complete Freund's adjuvant-induced thermal hyperalgesia in rat assessed as withdrawal threshold at 100 umol/kg, ip after 48 hrs; type: functional
Rattus norvegicus [34] = test: Antinociceptive efficacy against complete Freund's adjuvant-induced thermal hyperalgesia in rat assessed as withdrawal threshold at 500 umol/kg, ip after 48 hrs; type: functional
Histamine H4 receptor [35] = target: T3, Histamine H4 receptor; details: HEK293
[36] = Half life in rat at 10 mg/kg, iv; type: ADME, organism-based; set-up: dose 10 mg/kg, route intravenous; details: in vivo
[37] = Blood clearance in rat at 10 mg/kg, iv; type: ADME, organism-based; set-up: dose 10 mg/kg, route intravenous; details: whole blood
[38] = Terminal volume of distribution in rat at 10 mg/kg, iv; type: ADME, organism-based; set-up: dose 10 mg/kg, route intravenous; details: in vivo, read-out: Vbeta
[39] = Fractional bioavailability in rat at 10 mg/kg, iv and 10 mg/kg, po; type: ADME, organism-based; details: in vivo
[40] = Half life in mouse at 5 mg/kg, iv; type: ADME, organism-based; set-up: dose 5 mg/kg, route intravenous; details: in vivo
Mus musculus [41] = test: Blood clearance in mouse at 5 mg/kg, iv; type: ADME, organism-based; set-up: dose 5 mg/kg, route intravenous; details: in vivo
[42] = Terminal volume of distribution in mouse at 5 mg/kg, iv; type: ADME, organism-based; set-up: dose 5 mg/kg, route intravenous; details: in vivo, read-out: Vbeta
[43] = Fractional bioavailability in rat at 5 mg/kg, iv and 5 mg/kg, po; type: ADME, organism-based; details: in vivo
Rattus norvegicus [44] = test: Antinociceptive efficacy in ip dosed rat assessed as inhibition of carrageenan-induced inflammatory pain in paw after 30 mins by hotbox assay; type: functional; details: 0.5 h
Rattus norvegicus [45] = test: Antinociceptive efficacy in rat assessed as inhibition of carrageenan-induced inflammatory pain in paw at 100 umol/kg, ip after 30 mins by hotbox assay relative to control; type: functional
Rattus norvegicus [46] = test: Antinociceptive efficacy in spinal nerve ligated Sprague-Dawley rat assessed as reduction of neuropathic pain in left side paw at 100 umol/kg, ip administered 30 mins before testing relative to control; type: functional

T1 sequence (Q91ZY1 whole entry): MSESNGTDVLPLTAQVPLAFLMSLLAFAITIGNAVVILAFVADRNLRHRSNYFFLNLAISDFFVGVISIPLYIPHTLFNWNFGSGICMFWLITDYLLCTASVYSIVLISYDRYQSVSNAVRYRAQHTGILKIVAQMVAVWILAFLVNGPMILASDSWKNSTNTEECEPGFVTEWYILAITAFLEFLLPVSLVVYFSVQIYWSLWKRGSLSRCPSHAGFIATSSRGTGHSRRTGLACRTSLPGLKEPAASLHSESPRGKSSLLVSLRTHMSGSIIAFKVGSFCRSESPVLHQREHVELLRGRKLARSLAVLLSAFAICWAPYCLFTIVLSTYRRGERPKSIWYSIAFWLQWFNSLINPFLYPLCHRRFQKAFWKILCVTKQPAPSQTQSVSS
Sequence of Cytochrome P450 3A4 (P08684 whole entry): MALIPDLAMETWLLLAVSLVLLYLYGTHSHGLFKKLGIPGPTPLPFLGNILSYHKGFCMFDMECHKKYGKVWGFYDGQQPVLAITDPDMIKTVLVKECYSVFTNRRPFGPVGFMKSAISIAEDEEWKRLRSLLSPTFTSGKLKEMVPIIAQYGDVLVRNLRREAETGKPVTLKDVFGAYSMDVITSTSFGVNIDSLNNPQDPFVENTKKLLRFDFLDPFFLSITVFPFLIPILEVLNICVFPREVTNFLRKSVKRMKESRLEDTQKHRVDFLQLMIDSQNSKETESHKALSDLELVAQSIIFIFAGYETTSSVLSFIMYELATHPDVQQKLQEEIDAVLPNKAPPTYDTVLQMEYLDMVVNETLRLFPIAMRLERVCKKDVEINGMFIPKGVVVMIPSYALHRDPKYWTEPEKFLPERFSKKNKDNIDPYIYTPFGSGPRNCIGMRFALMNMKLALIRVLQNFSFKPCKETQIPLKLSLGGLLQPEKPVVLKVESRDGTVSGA
Sequence of Cytochrome P450 2D6 (P10635 whole entry): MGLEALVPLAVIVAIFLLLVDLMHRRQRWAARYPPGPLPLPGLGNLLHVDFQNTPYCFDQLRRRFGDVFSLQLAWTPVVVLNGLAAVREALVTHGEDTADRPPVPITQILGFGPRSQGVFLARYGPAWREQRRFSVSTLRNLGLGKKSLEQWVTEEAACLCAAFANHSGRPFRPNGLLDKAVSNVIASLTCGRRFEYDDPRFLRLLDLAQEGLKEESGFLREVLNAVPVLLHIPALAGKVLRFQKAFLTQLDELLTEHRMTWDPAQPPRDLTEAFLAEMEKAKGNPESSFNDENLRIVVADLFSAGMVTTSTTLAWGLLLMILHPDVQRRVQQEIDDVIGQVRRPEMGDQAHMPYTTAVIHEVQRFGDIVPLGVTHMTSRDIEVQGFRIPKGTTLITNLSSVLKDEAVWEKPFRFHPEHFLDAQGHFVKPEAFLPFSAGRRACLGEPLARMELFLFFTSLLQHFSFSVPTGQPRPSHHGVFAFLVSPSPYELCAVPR
Sequence of Kappa-type opioid receptor (Homo sapiens) (P41145 whole entry): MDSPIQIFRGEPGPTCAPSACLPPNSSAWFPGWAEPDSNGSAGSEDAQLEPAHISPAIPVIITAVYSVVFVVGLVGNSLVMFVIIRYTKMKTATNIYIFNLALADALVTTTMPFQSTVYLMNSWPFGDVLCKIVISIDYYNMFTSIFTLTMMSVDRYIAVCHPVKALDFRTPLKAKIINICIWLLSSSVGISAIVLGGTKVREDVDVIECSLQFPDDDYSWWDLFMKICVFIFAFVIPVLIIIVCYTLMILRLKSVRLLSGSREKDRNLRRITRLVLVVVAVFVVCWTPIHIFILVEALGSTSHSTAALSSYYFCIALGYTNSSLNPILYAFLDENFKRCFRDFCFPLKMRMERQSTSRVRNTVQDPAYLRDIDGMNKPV
Sequence of Mu-type opioid receptor (Homo sapiens) (P35372 whole entry): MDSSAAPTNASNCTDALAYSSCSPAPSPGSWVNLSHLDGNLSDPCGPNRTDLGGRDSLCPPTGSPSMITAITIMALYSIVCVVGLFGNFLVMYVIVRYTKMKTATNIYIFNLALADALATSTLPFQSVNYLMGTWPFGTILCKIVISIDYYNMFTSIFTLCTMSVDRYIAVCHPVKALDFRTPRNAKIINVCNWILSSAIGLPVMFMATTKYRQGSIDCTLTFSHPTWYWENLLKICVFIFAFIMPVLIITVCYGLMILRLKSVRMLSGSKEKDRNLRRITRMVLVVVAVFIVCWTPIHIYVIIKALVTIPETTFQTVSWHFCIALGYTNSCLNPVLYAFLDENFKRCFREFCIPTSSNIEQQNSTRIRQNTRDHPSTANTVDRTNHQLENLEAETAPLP
Sequence of Cytochrome P450 2C9 (P11712 whole entry): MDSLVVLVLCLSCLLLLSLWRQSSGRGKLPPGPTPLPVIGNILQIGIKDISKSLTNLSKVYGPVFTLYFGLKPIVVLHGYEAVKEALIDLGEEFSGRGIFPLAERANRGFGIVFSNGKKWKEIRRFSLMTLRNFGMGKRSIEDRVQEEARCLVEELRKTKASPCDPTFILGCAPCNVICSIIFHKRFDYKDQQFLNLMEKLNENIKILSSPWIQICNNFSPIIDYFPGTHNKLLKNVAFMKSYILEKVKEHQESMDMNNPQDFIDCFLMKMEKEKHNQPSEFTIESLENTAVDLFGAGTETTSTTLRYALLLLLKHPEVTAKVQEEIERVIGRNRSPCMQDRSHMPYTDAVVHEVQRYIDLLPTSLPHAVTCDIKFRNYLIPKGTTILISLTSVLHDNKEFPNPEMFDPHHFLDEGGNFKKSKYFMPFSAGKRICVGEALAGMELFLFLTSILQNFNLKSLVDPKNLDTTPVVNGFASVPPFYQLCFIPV
Sequence of Delta-type opioid receptor (Homo sapiens) (P41143 whole entry): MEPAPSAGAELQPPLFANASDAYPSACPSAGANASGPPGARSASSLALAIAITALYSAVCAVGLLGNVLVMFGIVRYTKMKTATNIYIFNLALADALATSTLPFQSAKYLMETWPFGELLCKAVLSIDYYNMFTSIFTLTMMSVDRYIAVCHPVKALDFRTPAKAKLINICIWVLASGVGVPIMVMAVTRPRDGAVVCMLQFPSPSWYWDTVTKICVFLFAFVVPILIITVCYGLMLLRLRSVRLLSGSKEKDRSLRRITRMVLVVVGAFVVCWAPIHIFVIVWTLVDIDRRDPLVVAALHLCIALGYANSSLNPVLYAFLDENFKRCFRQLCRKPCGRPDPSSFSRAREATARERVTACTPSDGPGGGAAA
Sequence of Cannabinoid receptor 1 (Homo sapiens) (P21554 whole entry): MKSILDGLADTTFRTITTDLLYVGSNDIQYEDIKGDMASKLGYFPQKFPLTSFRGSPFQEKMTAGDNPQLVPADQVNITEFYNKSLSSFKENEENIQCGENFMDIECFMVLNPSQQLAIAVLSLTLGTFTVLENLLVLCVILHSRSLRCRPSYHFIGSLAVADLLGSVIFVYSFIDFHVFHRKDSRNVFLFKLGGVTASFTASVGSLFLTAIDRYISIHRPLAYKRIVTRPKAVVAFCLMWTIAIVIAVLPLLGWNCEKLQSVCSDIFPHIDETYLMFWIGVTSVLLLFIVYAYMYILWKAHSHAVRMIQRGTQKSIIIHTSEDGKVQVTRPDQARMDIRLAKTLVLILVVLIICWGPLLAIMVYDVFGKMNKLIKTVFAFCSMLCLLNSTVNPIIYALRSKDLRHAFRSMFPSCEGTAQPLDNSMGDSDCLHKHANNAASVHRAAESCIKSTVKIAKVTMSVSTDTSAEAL
Sequence of Prostaglandin G/H synthase 1 (Homo sapiens) (P23219 whole entry): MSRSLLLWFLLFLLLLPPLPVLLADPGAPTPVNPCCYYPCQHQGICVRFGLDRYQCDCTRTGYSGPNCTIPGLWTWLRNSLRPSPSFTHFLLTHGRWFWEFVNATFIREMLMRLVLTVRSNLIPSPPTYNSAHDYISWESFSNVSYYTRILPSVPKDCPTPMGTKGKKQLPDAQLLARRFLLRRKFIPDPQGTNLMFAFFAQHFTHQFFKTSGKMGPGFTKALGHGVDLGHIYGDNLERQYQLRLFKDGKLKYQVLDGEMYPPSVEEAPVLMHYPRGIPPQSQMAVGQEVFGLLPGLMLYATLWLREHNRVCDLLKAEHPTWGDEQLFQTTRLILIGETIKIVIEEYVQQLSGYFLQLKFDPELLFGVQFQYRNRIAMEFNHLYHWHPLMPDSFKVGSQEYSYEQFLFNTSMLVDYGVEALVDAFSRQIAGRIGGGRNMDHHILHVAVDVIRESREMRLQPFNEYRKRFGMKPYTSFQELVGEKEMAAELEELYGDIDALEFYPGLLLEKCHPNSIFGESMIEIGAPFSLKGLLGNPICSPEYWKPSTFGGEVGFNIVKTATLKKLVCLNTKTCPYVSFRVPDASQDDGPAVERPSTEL
Sequence of Cannabinoid receptor 2 (Homo sapiens) (P34972 whole entry): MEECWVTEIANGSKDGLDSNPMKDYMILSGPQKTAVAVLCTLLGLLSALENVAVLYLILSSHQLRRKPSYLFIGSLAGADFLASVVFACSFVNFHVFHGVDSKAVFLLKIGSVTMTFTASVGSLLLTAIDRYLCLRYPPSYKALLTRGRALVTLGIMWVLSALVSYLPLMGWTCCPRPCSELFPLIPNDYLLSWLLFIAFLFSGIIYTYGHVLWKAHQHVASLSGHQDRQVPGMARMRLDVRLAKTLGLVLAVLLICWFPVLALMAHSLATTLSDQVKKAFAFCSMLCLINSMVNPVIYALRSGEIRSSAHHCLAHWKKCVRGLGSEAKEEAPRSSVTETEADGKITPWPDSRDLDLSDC

EC50 (Histamine H4 receptor [1])	EC50 (Histamine H4 receptor [2])	Ki (Histamine H4 receptor [4])	Activity [12]	Activity [13]	Activity [14]	Activity [15]	Activity [16]	Activity [17]	Activity [18]	Stability (Liver microsomes [19])	Stability (Liver microsomes [20])	Stability [21]	fraction unbound [22]	fraction unbound [23]	Activity (Cytochrome P450 3A4)	Activity (Cytochrome P450 2D6)	Activity (Cytochrome P450 2C9)	Kp at 0.5 h [24]	Structure (SMILES)	Activity (BMMC)	also measured
6.61 nM	4.37 nM	5.13 nM	inactive	inactive	inactive	inactive	inactive	inactive	inactive	173 pmol/min/mg	20.7 pmol/min/mg	29.7 pmol/min/mg	0.43	0.51	Not Active	Not Active	Not Active	3	CN[C@@H]1CCN(c2nc(N)nc3c2CCCc2ccccc2-3)C1	Active	Ki (Histamine H4 receptor [3]): 3.5 nM; Ratio Ki [5]: > 1890; Ratio Ki [6]: > 1300; Ratio Ki (Homo sapiens): 570; Ratio Ki [7]: 460; Ratio Ki [8]: 235; Ratio Ki [9]: 2030; Ratio Ki [10]: 1820; Ratio Ki [11]: 150; ED50 (Mus musculus [25]): 100 µmol/kg; ED50 (Mus musculus [26]): 235 µmol/kg; Efficacy (Rattus norvegicus [27]): 9%; Efficacy (Rattus norvegicus [28]): 21%; Efficacy (Rattus norvegicus [29]): 69%; Efficacy (Rattus norvegicus [30]): 55%; Efficacy (Rattus norvegicus [31]): 34%; Efficacy (Rattus norvegicus [32]): 35%; Efficacy (Rattus norvegicus [33]): 49%; Efficacy (Rattus norvegicus [34]): 79%; pKb (Histamine H4 receptor [35]): 8.21
10 nM	5.75 nM	3.8 nM	inactive	inactive	inactive	inactive	inactive	inactive	inactive	19 pmol/min/mg	13 pmol/min/mg	32.9 pmol/min/mg	0.45	0.52	Not Active	Not Active	Not Active	2.2	Nc1nc2c(c(N3CC[C@@H](N)C3)n1)CCCc1ccccc1-2	Active	half-life [36]: 2.6 h; clearance [37]: 323 mL/min/kg; Vd [38]: 72.9 L/kg; bioavailability [39]: 34%; half-life [40]: 1.6 h; CL (Mus musculus [41]): 1190 mL/min/kg; Vd [42]: 131 L/kg; bioavailability [43]: 90%; ED50 (Mus musculus [25]): 34 µmol/kg; ED50 (Mus musculus [26]): 33 µmol/kg; ED50 (Rattus norvegicus [44]): 72 µmol/kg; Efficacy (Rattus norvegicus [45]): 68%; Efficacy (Rattus norvegicus [46]): 47%; pKb (Histamine H4 receptor [35]): 8.24

— ChEMBL document CHEMBL1140165, “Rotationally constrained 2,4-diamino-5,6-disubstituted pyrimidines: a new class of histamine H4 receptor antagonists with improved druglikeness and in vivo efficacy in pain and inflammation models” (J Med Chem, 2008)
